Source: US9593155B2, “Oxyntomodulin analogs” (priority 2009, dated 2017)
Read-outs that look alike come from different tables or passages of the source. *1 amine or outer side, *2 acyl side, *3 side chain or, on linkers, in order; H or OH if unused. Where a SMILES comes first, the peptide text is derived from it. Bridges are numbered along the chain shown (N, C = ends). Where no end group is shown, it is not given here. Side-chain parts run from the residue outwards. [ ]: non-standard residue; d: D form. The star is where a group is joined. X2 = CC(C)CCC[C@@H](C)[C@H]1CC[C@H]2[C@@H]3CC=C4C[C@@H](OC(=O)CCOCCOCCOCCOCCOCCOCCOCCOCCOCCOCCOCCOCCNC(=O)C*)CC[C@]4(C)[C@H]3CC[C@]12C; γGlu = O=C(O)[C@H](CCC(=O)[*:2])N[*:1]; Palmitoyl = CCCCCCCCCCCCCCCC(=O)*; Aib = CC(C)(N)C(=O)O

What was measured:
[1] = target: T1, hGLP-1R (Homo sapiens, UniProt P43220); assay: cell-based cAMP assay as described in WO2008101017 (Table 11), hGLP-1R
Source text: (§1) This example presents tables showing the in vitro potencies of various peptide analogs at the human GLP-1 receptor (hGLP-1R) and the human glucagon receptor (hGCGR).

[2] = target: T2, hGCGR (Homo sapiens, UniProt P47871); assay: cell-based cAMP assay as described in WO2008101017 (Table 11), hGCGR
Source text: as §1

[3] = pI of the peptide analogs
[4] = target: T1, hGLP-1R; assay: fluorescence cell based cAMP assay, CHO cells stably expressing GLP-1R; parameters: expressed in transfected cells; conditions: hGLP-1R EC50, Table 10
Procedure: (§2) We initially screened peptides in fluorescence cell based assays that measure production of cyclic-AMP (cAMP), using CHO cell lines stably expressing either recombinant human GLP-1R or human GCGR. Determination of Mouse and human GLP-1R and GCGR Agonist Activity was essentially as follows. CHO cells stably expressing mouse or human GLP-1R or GCGR were grown in Iscove's Modified Dulbecco's Medium (IMDM), 10% FBS, 1 mM L-glutamine, penicillin-streptomycin (100 μ/mL) and 750 μg G418/mL for three-four days before harvesting using Enzymefree Dissociation Media (EFDM, Specialty Media). […] The plates were held an additional hour at room temperature, then increasing cAMP levels were detected by a decrease in TR-FRET signal as measured in an EnVision counter (PerkinElmer) in comparison to a standard curve of cAMP as per the manufacturer's instructions. Data were analyzed using the linear and nonlinear regression analysis software, GraphPad Prism.
(§3) The in vitro potencies shown in Table 10 or Table 11 were determined from the results of assays that were similar to either the cell-based cAMP assays described herein above (Table 10) or the cell-based cAMP assays described in International Published Application No. WO2008101017, which is incorporated herein in its entirety, in particular the cell-based cAMP assays described therein (Table 11).

[5] = target: T2, hGCGR; assay: fluorescence cell based cAMP assay, CHO cells stably expressing GCGR
Procedure: as §2, with “The assay was terminated with the addition of the LANCE kit Detection buffer as per the manufacturer's instructions. The” for “The”
as §3

[6] = hyperglycemic clamp in DIO mice; assay type: in vivo, mouse; conditions: ~16 μg/kg/min i.v., last 60 minutes
Procedure: DIO mice (16 wk on high fat diet) were anesthetized with xylazine and ketamine and catheterized through the right internal jugular vein 3 days before the in vivo studies. […] The venous catheter was used for infusion, and blood samples were collected from the tail vein. Each animal was monitored for food intake and weight gain after surgery to ensure complete recovery. […] Briefly, plasma glucose was measured by OneTouch glucometer every 10 minutes during the 2 hour period. Twenty-five percent glucose (D-glucose, Sigma) was infused i.v. and the rate was adjusted periodically to clamp the plasma glucose levels (˜20 mM). […] Glucose infusion rate (GIR) was adjusted to body weight.

[7] = target: T3, GCGR (Mus musculus, UniProt Q61606); assay: in vivo GCGR receptor occupancy competition assay with 125I-glucagon in wild-type mice
T3 construct: from tissue; host or cells: liver of wild-type mice, dosed in vivo

[8] = target: T2, hGCGR; assay: ex vivo perfused liver glycogenolysis assay (13C NMR), humanized GCGR mice; conditions: at 300 nM
Procedure: Humanized GCGR mice (C57B/6N) were anesthetized (Nembutal IP, 50 mg/kg) in the middle of the dark cycle. The portal vein was then cannulated and the liver was excised and perfused with a preoxygenated Krebs-Henseleit bicarbonate buffered solution for 5-10 minutes which initially was not recirculated to wash out any endogenous substrates. […] A ^13C NMR-visible pool of glycogen was then created by the addition of the gluconeogenic substrate [2-^13C] Pyruvate and ammonium chloride (˜7 mM and 1 mM, respectively) to the perfusate, and the amount of ^13C glycogen contained in the liver was monitored in real time via the Cl resonance of the glucosyl units in glycogen.
Mice expressing human GCGR were anesthetized (Nembutal IP, 50 mg/kg) at approximately the middle of the dark cycle. The portal vein was then cannulated and tied off and the liver was excised. The liver was then placed into a 20 mm NMR tube and the initial Krebs solution was exchanged for a Krebs-BSA perfusate, which was recirculated. ^31P NMR spectroscopy was performed initially to examine the ATP and inorganic phosphate (Pi) levels in the liver which can be used to assess hepatic viability. […] Pyruvate+NH4Cl and the amount of glycogen contained in the liver was monitored in real time via the Cl resonance of the glucosyl units in glycogen.

[9] = 14 day chronic infusion food intake and body weight study in DIO mice; assay type: in vivo, mouse; conditions: for Cumulative food intake change / Cumulative weight change: 14 day chronic infusion
Source text: Lean or diet-induced obese 10-12-week-old male C57BL/6 mice were purchased from Taconic Farms (Germantown, N.Y.) and housed in individual Tecniplast cages in a conventional SPF facility.

[10] = intraperitoneal glucose tolerance test (IPGTT) in lean C57BL/6N mice; assay type: in vivo, mouse
Procedure: Intraperitoneal glucose tolerance test. Male C57BL/6N mice were distributed by weight into treatment groups (n=6/group). […] 10 min prior the glucose challenge. Blood glucose concentrations were determined at T=−10 min and T=0 min (baseline). Mice were then immediately challenged, intraperitoneally, with D-glucose (2 g/kg). One group of vehicle-treated mice was challenged with 0.9% saline as a
negative control. Blood glucose levels were determined from tail bleeds taken at 20, 40 and 60 min after D-glucose challenge. […] Percent inhibition values for each treatment were generated from the AUC data normalized to the saline-challenged controls. Areas under the curve (AUC) for glucose (AUC glucose) was calculated using the trapezoidal method. […] Statistical analysis was done using unpaired 2-tailed Student's t test. P values<0.05 were reported as significant.

T2 sequence (P47871 26-477): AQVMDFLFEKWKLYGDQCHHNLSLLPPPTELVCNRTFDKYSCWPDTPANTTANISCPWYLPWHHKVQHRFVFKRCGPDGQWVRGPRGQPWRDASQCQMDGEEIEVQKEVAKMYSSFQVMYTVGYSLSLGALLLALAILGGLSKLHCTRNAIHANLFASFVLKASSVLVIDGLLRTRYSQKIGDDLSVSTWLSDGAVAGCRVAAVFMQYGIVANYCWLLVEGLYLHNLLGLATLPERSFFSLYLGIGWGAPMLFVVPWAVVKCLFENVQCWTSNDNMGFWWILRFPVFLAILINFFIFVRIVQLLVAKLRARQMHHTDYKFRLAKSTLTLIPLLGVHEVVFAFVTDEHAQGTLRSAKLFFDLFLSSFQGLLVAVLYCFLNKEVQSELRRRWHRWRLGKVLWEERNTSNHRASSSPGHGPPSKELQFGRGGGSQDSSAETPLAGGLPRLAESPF
T1 sequence (P43220 24-463): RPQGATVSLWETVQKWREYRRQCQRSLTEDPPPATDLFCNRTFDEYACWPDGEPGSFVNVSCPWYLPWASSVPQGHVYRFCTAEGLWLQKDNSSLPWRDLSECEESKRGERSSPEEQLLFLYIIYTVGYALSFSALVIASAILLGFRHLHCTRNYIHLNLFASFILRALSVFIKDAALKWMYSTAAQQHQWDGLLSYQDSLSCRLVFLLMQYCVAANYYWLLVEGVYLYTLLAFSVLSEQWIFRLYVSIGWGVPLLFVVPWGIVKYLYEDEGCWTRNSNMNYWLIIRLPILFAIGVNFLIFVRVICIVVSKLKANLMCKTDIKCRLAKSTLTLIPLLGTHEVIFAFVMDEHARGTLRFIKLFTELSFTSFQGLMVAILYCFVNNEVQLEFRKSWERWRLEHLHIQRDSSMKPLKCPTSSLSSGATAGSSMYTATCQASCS
T3 sequence (Q61606 27-485): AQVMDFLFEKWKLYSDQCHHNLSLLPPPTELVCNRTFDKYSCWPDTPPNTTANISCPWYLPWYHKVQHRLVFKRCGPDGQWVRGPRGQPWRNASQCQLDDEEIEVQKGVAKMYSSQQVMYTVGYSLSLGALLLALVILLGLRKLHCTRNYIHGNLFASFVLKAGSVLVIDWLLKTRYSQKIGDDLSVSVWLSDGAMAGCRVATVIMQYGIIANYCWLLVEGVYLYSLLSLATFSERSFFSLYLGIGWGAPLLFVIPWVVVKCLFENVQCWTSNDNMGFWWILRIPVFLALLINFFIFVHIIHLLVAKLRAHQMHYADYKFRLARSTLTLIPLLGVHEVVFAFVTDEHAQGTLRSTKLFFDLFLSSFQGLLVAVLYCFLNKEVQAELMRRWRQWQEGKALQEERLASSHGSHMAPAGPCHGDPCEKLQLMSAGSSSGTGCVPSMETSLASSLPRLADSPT

In the case of `CCCCCCCCCCCCCCCC(=O)N[C@@H](CCC(=O)N[C@@H](CCC(=O)NCCCC[C@H](NC(=O)[C@H](CC(=O)O)NC(=O)[C@H](CO)NC(=O)[C@@H](NC(=O)[C@H](Cc1ccccc1)NC(=O)[C@@H](NC(=O)CNC(=O)[C@H](CCC(N)=O)NC(=O)[C@@H](CO)NC(=O)[C@@H](N)Cc1c[nH]cn1)[C@@H](C)O)[C@@H](C)O)C(=O)N[C@@H](CO)C(=O)N[C@@H](CCCCN)C(=O)N[C@@H](Cc1ccc(O)cc1)C(=O)N[C@@H](CC(C)C)C(=O)N[C@@H](CC(=O)O)C(=O)NC(C)(C)C(=O)N[C@@H](CCCNC(=N)N)C(=O)N[C@@H](CCCNC(=N)N)C(=O)N[C@@H](C)C(=O)N[C@@H](CCC(N)=O)C(=O)N[C@@H](CC(=O)O)C(=O)N[C@@H](Cc1ccccc1)C(=O)N[C@H](C(=O)N[C@@H](CCC(N)=O)C(=O)N[C@@H](Cc1c[nH]c2ccccc12)C(=O)N[C@@H](CC(C)C)C(=O)N[C@@H](CCSC)C(=O)N[C@@H](CC(N)=O)C(=O)N[C@H](C(=O)N[C@H](CCCCN)C(=O)N[C@@H](CCC(N)=O)C(=O)O)[C@@H](C)O)C(C)C)C(=O)O)C(=O)O` [MM103], the EC50 [1] is reported as 0.026 nM and the EC50 [2] is reported as 0.005 nM.

In the case of `CCCCCCCCCCCCCCCC(=O)N[C@@H](CCC(=O)N[C@@H](CCC(=O)NCCCC[C@H](NC(=O)[C@H](CC(=O)O)NC(=O)[C@H](CO)NC(=O)[C@@H](NC(=O)[C@H](Cc1ccccc1)NC(=O)[C@@H](NC(=O)CNC(=O)[C@H](CCC(N)=O)NC(=O)[C@@H](CO)NC(=O)[C@@H](N)Cc1c[nH]cn1)[C@@H](C)O)[C@@H](C)O)C(=O)N[C@@H](CO)C(=O)N[C@@H](CCCCN)C(=O)N[C@@H](Cc1ccc(O)cc1)C(=O)N[C@@H](CC(C)C)C(=O)N[C@@H](CC(=O)O)C(=O)N[C@@H](CCC(=O)O)C(=O)N[C@@H](CCCNC(=N)N)C(=O)N[C@@H](CCCNC(=N)N)C(=O)N[C@@H](C)C(=O)N[C@@H](CCC(N)=O)C(=O)N[C@@H](CC(=O)O)C(=O)N[C@@H](Cc1ccccc1)C(=O)N[C@H](C(=O)N[C@@H](CCC(N)=O)C(=O)N[C@@H](Cc1c[nH]c2ccccc12)C(=O)N[C@@H](CC(C)C)C(=O)N[C@@H](CCSC)C(=O)N[C@@H](CC(N)=O)C(=O)N[C@H](C(=O)N[C@@H](CCCCN)C(=O)N[C@@H](CCC(N)=O)C(=O)O)[C@@H](C)O)C(C)C)C(=O)O)C(=O)O` [MM111] (H-H[dS]QGTFTSDK([γGlu-γGlu-Palmitoyl])SKYLDERRAQDFVQWLMNTKQ-OH), the EC50 [1] is reported as 0.007 nM and the EC50 [2] is reported as 0.005 nM.

In the case of `CSCC[C@H](NC(=O)[C@H](CC(C)C)NC(=O)[C@H](Cc1c[nH]c2ccccc12)NC(=O)[C@H](CCC(N)=O)NC(=O)[C@@H](NC(=O)[C@H](Cc1ccccc1)NC(=O)[C@H](CC(=O)O)NC(=O)[C@@H]1CCCCNC(=O)CC[C@H](NC(=O)[C@H](CC(=O)O)NC(=O)[C@H](CC(C)C)NC(=O)[C@H](Cc2ccc(O)cc2)NC(=O)[C@H](CCCCN)NC(=O)[C@H](CO)NC(=O)[C@H](Cc2ccc(O)cc2)NC(=O)[C@H](CC(=O)O)NC(=O)[C@H](CO)NC(=O)[C@@H](NC(=O)[C@H](Cc2ccccc2)NC(=O)[C@@H](NC(=O)CNC(=O)[C@H](CCC(N)=O)NC(=O)C(C)(C)NC(=O)[C@@H](N)Cc2c[nH]cn2)[C@@H](C)O)[C@@H](C)O)C(=O)N[C@@H](CCCNC(=N)N)C(=O)N[C@@H](CCCNC(=N)N)C(=O)N[C@@H](C)C(=O)N1)C(C)C)C(=O)N[C@@H](CC(N)=O)C(=O)N[C@H](C(=O)N[C@@H](CCCCN)C(=O)N[C@@H](CCC(=O)N[C@@H](CCC(=O)N[C@@H](CSCC(=O)NCCOCCOCCOCCOCCOCCOCCOCCOCCOCCOCCOCCOCCC(=O)O[C@H]1CC[C@@]2(C)C(=CC[C@H]3[C@@H]4CC[C@H]([C@H](C)CCCC(C)C)[C@@]4(C)CC[C@@H]32)C1)C(=O)O)C(=O)O)C(=O)O)[C@@H](C)O` [OXM395] (H-H[Aib]QGTFTSDYSKYLDERRAKDFVQWLMNTK[γGlu][γGlu]C(X2)-OH; lactam 16-20; N-terminus assumed), the pI [3] is reported as “about 5.4”, the pI ([3]; Table 10) is reported as 5.4 and the EC50 [4] is reported as 0.7 nM.

Molecule `CCCCCCCCCCCCCCCC(=O)N[C@@H](CCC(=O)N[C@@H](CCC(=O)NCCCC[C@H](NC(=O)[C@H](CC(=O)O)NC(=O)[C@H](CO)NC(=O)[C@@H](NC(=O)[C@H](Cc1ccccc1)NC(=O)[C@@H](NC(=O)CNC(=O)[C@H](CCC(N)=O)NC(=O)[C@@H](CO)NC(=O)[C@@H](N)Cc1c[nH]cn1)[C@@H](C)O)[C@@H](C)O)C(=O)N[C@@H](CO)C(=O)N[C@@H](CCCCN)C(=O)N[C@@H](Cc1ccc(O)cc1)C(=O)N[C@@H](CC(C)C)C(=O)N[C@@H](CC(=O)O)C(=O)NC(C)(C)C(=O)N[C@@H](CCCNC(=N)N)C(=O)N[C@@H](CCCNC(=N)N)C(=O)N[C@@H](C)C(=O)N[C@@H](CCC(N)=O)C(=O)N[C@@H](CC(=O)O)C(=O)N[C@@H](Cc1ccccc1)C(=O)N[C@H](C(=O)N[C@@H](CCC(N)=O)C(=O)N[C@@H](Cc1c[nH]c2ccccc12)C(=O)N[C@@H](CC(C)C)C(=O)N[C@@H](CCSC)C(=O)N[C@@H](CC(N)=O)C(=O)N[C@H](C(=O)N[C@@H](CCCCN)C(=O)N[C@@H](CCC(N)=O)C(=O)O)[C@@H](C)O)C(C)C)C(=O)O)C(=O)O` [OXM418] has an EC50 ([5]; hGCGR + 20% plasma EC50, Table 10, 20% plasma) of 0.3 nM, an EC50 [1] of 0.026 nM and a pI ([3]; Table 10) of 5.5.

In the case of “HSEGTFTSDYSKYLDSRRAQDFVQWLMNTKRNRNNIA [OXM-Q3E]”, the EC50 ([5]; GCGR EC50, Table 4) is reported as 1630 nM, the “GIR0-60 (glucose infusion rate)” value [6] is reported as 55 ± 4 mg/kg/min and the GCGR occupancy ([7]; subcutaneous, dose not given) is reported as 0%. For the same molecule, the glycogenolysis induced [8] was “about 58%”, the ΔBW ([9]; 5 mg/kg) was −2.4% and the “Cumulative food intake change” value ([9]; 0.5 mg/kg) was 215 kcal. For the same molecule, the Cumulative weight change ([9]; 0.5 mg/kg) was -0.21 g, the “Cumulative food intake change” value ([9]; 5 mg/kg) was 207 kcal and the Cumulative weight change ([9]; 5 mg/kg) was -0.21 g. The “effectiveness at reducing glucose relative to native peptide” value ([10]; comparison of the minimal effective dose, IPGTT) was “about 10 fold” and the “blood glucose excursion in IPGTT” value ([10]; lean C57BL/6N mice, s.c.) was “significantly reduced blood glucose excursion in a dose-dependent manner”.

In the case of glucagon [reference compound], the GCGR occupancy ([7]; 1.5 mpk) is reported as 84%.
